Assay results from publication PMC5515971, “Utility of spherical human liver microtissues for prediction of clinical drug-induced liver injury” (Archives of Toxicology, 2017).
pIC50: −log10 of the molar value. Read-outs that look alike come from different tables or passages of the source. Each block holds one compound with its values, some of them ahead of it.

Legend:
[1] = tested on: 3D human liver microtissues (hLiMT); test: Cytotoxicity (cellular ATP, CellTiter-Glo 2.0) in 3D human liver microtissues, 14 day repeat-dose treatment; settings: for IC50 / pIC50: Homo sapiens, 336 h; for IC50: Hepatocyte, read-out: Geomean IC50 [µM]; for classification at 50× MOS threshold: hLiMT 14 days
[2] = Clinical DILI severity categorization and DILI pattern; settings: P = DILI severity categories 1, 2 and 3; N = categories 4 and 5
[3] = ref Chen et al 2016 / Chen et al 2011; cited from earlier work
[4] = tested on: primary human hepatocytes (PHH); test: Cytotoxicity (cellular ATP, CellTiter-Glo) in 2D plated primary human hepatocytes, 48 h treatment; type: cell-based; settings: for pIC50: Hepatocyte, 2D primary human hepatocytes (lot IZT), 48 h treatment, total cellular ATP content, read-out: Geomean IC50; for classification at 50× MOS threshold: PHH 48 h;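 for all read-outs here: 384-well plates, luminescence read-out, normalized to vehicle wells with 1% DMSO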
[5] = cited from earlier work; for P/N (DILI positive / DILI negative): P = DILI severity categories 1, 2 and 3, N = categories 4 and 5; for DILI category: clinical, from literature and product labels
[6] = cited from earlier work
[7] = tested on: 3D human liver microtissues (hLiMT); test: alpha-GST release into hLiMT supernatant (ELISA); type: cell-based; settings: 336 h, 14 days, release into medium, read-out: IC50 (α-GST assay)
[8] = tested on: 3D human liver microtissues (hLiMT); test: Cytotoxicity (cellular ATP) in 3D human liver microtissues, 5-6 days treatment; type: cell-based; settings: Homo sapiens; hLiMT, 5/6 days, ATP content; read-out: IC50 SHORT;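 note: Hanging-drop spheroids, seven-point dilution series, re-dosed on day 3, CellTiter-Glo 2.0 luminescence, normalized to 0.5 or 1% DMSO vehicle controls on the same plate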
[9] = Table 1, ref Garside et al. (2014)
[10] = clinical DILI severity category, 1-5
[11] = table S-5, ref Garside et al. 2014
[12] = human Cmax total, used for IC50/Cmax
[13] = human total plasma Cmax, ref literature values
[14] = table S-4, ref Garside et al. 2014

Compound: CC(C)(C)NCC(O)COc1cccc2c1CC(O)C(O)C2 (stereo not drawn) [Nadolol]
IC50 [1]: > 100 µM
P/N (DILI positive / DILI negative) [2]: N
FDA DILI Classification DILI severity score [3]: 3
LTKB DILI classification [3]: Ambiguous DILI concern
pIC50 [4]: < 4.00
P/N (DILI positive / DILI negative) [5]: N
DILI severity category [5, 9]: 4: Enzyme elevations in clinic (N = 16)
DILI severity category [5, 10]: 4. Enzyme Elevations in Clinic
DILI category ([5]; ref Garside et al. 2014): 4. Enzyme Elevations in Clinic
DILI severity category [5, 11]: 4. Enzyme Elevations in Clinic
Cmax [6, 12]: 810 nM
Cmax [6, 13]: 810 nM

Compound: CN1[C@@H]2CC[C@H]1C[C@@H](OC(c1ccccc1)c1ccccc1)C2 [Benztropine]
classification at 50× MOS threshold [1]: false positive
P/N (DILI positive / DILI negative) [2]: N
FDA DILI Classification DILI severity score [3]: 0
LTKB DILI classification [3]: no DILI concern
classification at 50× MOS threshold [4]: false positive
P/N (DILI positive / DILI negative) [5]: N
DILI severity category [5, 9]: 5: No DILI (N = 25)
DILI severity category [5, 10]: 5. No DILI
DILI category ([5]; ref Garside et al. 2014): 5. No DILI
Cmax [6, 12]: 585 nM
Cmax [6, 13]: 590 nM

pIC50 [7]: 4.20
Compound: Cc1ccc(C(=O)c2cc(O)c(O)c([N+](=O)[O-])c2)cc1 [Tolcapone]
pIC50 ([1]; read-out: IC50 (ATP-assay)): 4.71
pIC50 ([1]; read-out: IC50 LONG): 4.81
IC50 [1]: ~19 µM
FDA DILI Classification DILI severity score [3]: 8
LTKB DILI classification [3]: most DILI concern
pIC50 [8]: 4.52
pIC50 [4]: 3.80
DILI severity category [5, 9]: 1: Severe clinical DILI (N = 23)
DILI severity category [5, 10]: 1. Severe Clinical DILI
DILI category ([5]; ref Garside et al. 2014): 1. Severe Clinical DILI
DILI severity category [5, 14]: 1
DILI severity category [5, 11]: 1. Severe Clinical DILI
Cmax [6, 12]: 47600 nM
Cmax [6, 13]: 47600 nM

pIC50 [7]: 4.86
Compound: Cc1c(C)c2c(c(C)c1O)CCC(C)(COc1ccc(CC3SC(=O)NC3=O)cc1)O2 (stereo not drawn) [Troglitazone]
pIC50 ([1]; read-out: IC50 (ATP-assay)): 4.97
pIC50 ([1]; read-out: IC50 LONG): 4.84
IC50 [1]: ~14.6 µM
FDA DILI Classification DILI severity score [3]: 8
LTKB DILI classification [3]: most DILI concern
pIC50 [8]: 4.59
pIC50 [4]: < 4.00
DILI severity category [5, 9]: 1: Severe clinical DILI (N = 23)
DILI severity category [5, 10]: 1. Severe Clinical DILI
DILI category ([5]; ref Garside et al. 2014): 1. Severe Clinical DILI
DILI severity category [5, 14]: 1
DILI severity category [5, 11]: 1. Severe Clinical DILI
Cmax [6, 12]: 6400 nM

pIC50 [7]: 4.31
Compound: CCc1nn(CCCN2CCN(c3cccc(Cl)c3)CC2)c(=O)n1CCOc1ccccc1 [Nefazodone]
pIC50 ([1]; read-out: IC50 (ATP-assay)): ~4.35
pIC50 ([1]; read-out: IC50 LONG): 4.53
IC50 [1]: ~29.4 µM
classification at 50× MOS threshold [1]: hepatotoxic
FDA DILI Classification DILI severity score [3]: 8
LTKB DILI classification [3]: most DILI concern
pIC50 [8]: 4.60
pIC50 [4]: 4.44
classification at 50× MOS threshold [4]: hepatotoxic
DILI severity category [5, 9]: 1: Severe clinical DILI (N = 23)
DILI severity category [5, 10]: 1. Severe Clinical DILI
DILI category ([5]; ref Garside et al. 2014): 1. Severe Clinical DILI
DILI severity category [5, 14]: 1
DILI severity category [5, 11]: 1. Severe Clinical DILI
Cmax [6, 12]: 4300 nM
Cmax [6, 13]: 4260 nM

Compound: CNC1(C)C2CCC(C2)C1(C)C (stereo not drawn) [Mecamylamine]
IC50 [1]: > 25 µM
P/N (DILI positive / DILI negative) [2]: N
FDA DILI Classification DILI severity score [3]: 0
LTKB DILI classification [3]: no DILI concern
pIC50 [4]: < 4.30
P/N (DILI positive / DILI negative) [5]: N
DILI severity category [5, 9]: 5: No DILI (N = 25)
DILI severity category [5, 10]: 5. No DILI
DILI category ([5]; ref Garside et al. 2014): 5. No DILI
Cmax [6, 13]: 140 nM

Compound: CCOC(=O)c1ncn2c1CN(C)C(=O)c1cc(F)ccc1-2 [Flumazenil]
IC50 [1]: > 250 µM
P/N (DILI positive / DILI negative) [2]: N
FDA DILI Classification DILI severity score [3]: 0
LTKB DILI classification [3]: no DILI concern
pIC50 [4]: < 3.60
P/N (DILI positive / DILI negative) [5]: N
DILI severity category [5, 9]: 5: No DILI (N = 25)
DILI severity category [5, 10]: 5. No DILI
DILI category ([5]; ref Garside et al. 2014): 5. No DILI
Cmax [6, 12]: 1120 nM
Cmax [6, 13]: 1120 nM

Compound: [H]/N=C(/N)N[C@H]1[C@H](O)[C@@H](O)[C@H](O[C@@H]2O[C@@H](C)[C@](O)(C=O)[C@H]2O[C@@H]2O[C@@H](CO)[C@H](O)[C@@H](O)[C@@H]2NC)[C@@H](N/C(N)=N\[H])[C@@H]1O [Streptomycin]
IC50 [1]: > 100 µM
P/N (DILI positive / DILI negative) [2]: N
LTKB DILI classification [3]: no DILI concern
pIC50 [8]: 4.00
pIC50 [4]: < 4.00
P/N (DILI positive / DILI negative) [5]: N
DILI severity category [5, 9]: 5: No DILI (N = 25)
P/N ([5]; binary DILI classification, table S-4): N
DILI severity category [5, 10]: 5. No DILI
DILI category ([5]; ref Garside et al. 2014): 5. No DILI
DILI severity category [5, 14]: 5
Cmax [6, 12]: 64500 nM
Cmax [6, 13]: 64500 nM

Compound: CCCCNc1cc(C(=O)O)cc(S(N)(=O)=O)c1Oc1ccccc1 [Bumetanide]
IC50 [1]: > 10 µM
P/N (DILI positive / DILI negative) [2]: N
FDA DILI Classification DILI severity score [3]: 3
LTKB DILI classification [3]: Ambiguous DILI concern
pIC50 [4]: < 5.00
P/N (DILI positive / DILI negative) [5]: N
DILI severity category [5, 9]: 4: Enzyme elevations in clinic (N = 16)
DILI severity category [5, 10]: 4. Enzyme Elevations in Clinic
DILI category ([5]; ref Garside et al. 2014): 4. Enzyme Elevations in Clinic
Cmax [6, 12]: 84.8 nM
Cmax [6, 13]: 84.8 nM
